What follows are compounds tested against D(1A) dopamine receptor (Homo sapiens, UniProt P21728) (assay: Positive allosteric modulator activity at human dopamine D1 receptor expressed in HEK293 cells assessed as potentiation of dopamine-induced cAMP accumulation by measuring dopamine EC50 at 50 uM measured after 30 mins by HitHunter assay (Rvb = 214 nM)).
D(1A) dopamine receptor, sequence (P21728 whole entry): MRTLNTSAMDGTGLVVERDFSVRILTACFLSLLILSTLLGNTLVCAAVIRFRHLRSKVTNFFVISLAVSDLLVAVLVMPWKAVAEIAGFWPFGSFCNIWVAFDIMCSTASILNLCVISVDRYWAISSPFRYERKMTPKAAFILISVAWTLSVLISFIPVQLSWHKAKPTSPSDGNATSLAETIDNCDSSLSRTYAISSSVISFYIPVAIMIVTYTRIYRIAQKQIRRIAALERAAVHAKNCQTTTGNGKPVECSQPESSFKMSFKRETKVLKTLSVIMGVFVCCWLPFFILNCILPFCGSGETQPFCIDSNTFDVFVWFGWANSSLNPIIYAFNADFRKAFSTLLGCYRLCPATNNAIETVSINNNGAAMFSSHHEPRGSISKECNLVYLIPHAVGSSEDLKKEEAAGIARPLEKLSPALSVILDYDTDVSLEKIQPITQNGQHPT

EC50 [nM] | SMILES
123 | Cn1c2ccccc2c(=O)c2c(=O)n(-c3ccccc3)c(C3CCCCC3)nc21

The compounds below were run against D(1B) dopamine receptor (Homo sapiens, UniProt P21918) (assay: Positive allosteric modulator activity at human dopamine D5 receptor expressed in CHO-K1 cells assessed as potentiation of dopamine-induced beta-arrestin2 recruitment by measuring dopamine EC50 at 50 uM incubated for 90 mins by PathHunter assay (Rvb = 81.7 nM)).
D(1B) dopamine receptor, sequence (P21918 whole entry): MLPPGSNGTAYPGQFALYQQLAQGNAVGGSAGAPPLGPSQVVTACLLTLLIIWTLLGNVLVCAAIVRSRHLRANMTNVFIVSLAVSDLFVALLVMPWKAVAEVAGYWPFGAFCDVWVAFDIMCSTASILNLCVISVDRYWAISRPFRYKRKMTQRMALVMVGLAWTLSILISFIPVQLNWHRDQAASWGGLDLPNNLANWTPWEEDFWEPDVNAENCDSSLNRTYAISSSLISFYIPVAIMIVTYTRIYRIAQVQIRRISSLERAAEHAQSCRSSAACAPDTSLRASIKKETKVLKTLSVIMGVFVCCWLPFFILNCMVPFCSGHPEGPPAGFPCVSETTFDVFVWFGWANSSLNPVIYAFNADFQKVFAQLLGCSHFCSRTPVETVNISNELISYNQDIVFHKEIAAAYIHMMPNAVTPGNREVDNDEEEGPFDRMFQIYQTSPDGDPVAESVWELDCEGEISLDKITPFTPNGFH

SMILES | EC50 [nM]
Cn1c2ccccc2c(=O)c2c(=O)n(-c3cccc(Cl)c3)c(CC3CCCCC3)nc21 | 95
Cn1c2ccccc2c(=O)c2c(=O)n(-c3ccccc3)c(CC3CCCCC3)nc21 | 49
COc1ccc(-n2c(C3CCCC3)nc3c(c(=O)c4ccccc4n3C)c2=O)cc1Cl | 28
COc1ccc(-n2c(C3CCCC3)nc3c(c(=O)c4ccccc4n3C)c2=O)cc1 | 25
Cn1c2ccccc2c(=O)c2c(=O)n(-c3ccc(Cl)cc3)c(C3CCCC3)nc21 | 43
Cc1ccc(-n2c(C3CCCC3)nc3c(c(=O)c4ccccc4n3C)c2=O)cc1 | 27
Cn1c2ccccc2c(=O)c2c(=O)n(-c3ccccc3)c(C3CCCC3)nc21 | 80
CC(C)Cc1nc2c(c(=O)c3ccccc3n2C)c(=O)n1-c1ccc(Cl)cc1 | 56
Cc1ccc(-n2c(CC(C)C)nc3c(c(=O)c4ccccc4n3C)c2=O)cc1 | 44
COc1ccc(-n2c(C3CCCCC3)nc3c(c(=O)c4ccccc4n3C)c2=O)cc1 | 62
Cn1c2ccccc2c(=O)c2c(=O)n(-c3ccc(Cl)cc3)c(C3CCCCC3)nc21 | 44
Cc1ccc(-n2c(C3CCCCC3)nc3c(c(=O)c4ccccc4n3C)c2=O)cc1 | 27
Cn1c2ccccc2c(=O)c2c(=O)n(-c3ccccc3)c(C3CCCCC3)nc21 | 29

Continued by falling EC50, values first:

EC50 [nM] | SMILES
168 | Cc1ccc(-n2c(CC3CCCCC3)nc3c(c(=O)c4ccccc4n3C)c2=O)cc1
103 | CC(C)Cc1nc2c(c(=O)c3ccccc3n2C)c(=O)n1-c1ccccc1
95 | Cn1c2ccccc2c(=O)c2c(=O)n(-c3ccccc3)c(C3CC3)nc21
94 | COc1ccc(-n2c(CC3CCCCC3)nc3c(c(=O)c4ccccc4n3C)c2=O)cc1Cl
82 | Cn1c2ccccc2c(=O)c2c(=O)[nH]c(C3CCCC3)nc21
80 | Cn1c2ccccc2c(=O)c2c(=O)n(-c3cccc(Cl)c3)c(C3CCCCC3)nc21
74 | Cn1c2ccccc2c(=O)c2c(=O)n(-c3ccc(Cl)cc3)c(CC3CCCCC3)nc21
63 | CC(C)Cc1nc2c(c(=O)c3ccccc3n2C)c(=O)n1-c1cccc(Cl)c1
59 | COc1ccc(-n2c(C3CCCCC3)nc3c(c(=O)c4ccccc4n3C)c2=O)cc1Cl
58 | COc1ccc(-n2c(CC(C)C)nc3c(c(=O)c4ccccc4n3C)c2=O)cc1Cl
43 | Cn1c2ccccc2c(=O)c2c(=O)n(-c3cccc(Cl)c3)c(C3CCCC3)nc21
34 | COc1ccc(-n2c(CC(C)C)nc3c(c(=O)c4ccccc4n3C)c2=O)cc1

— BindingDB's records for doi:10.1016/j.bmcl.2020.127696 (National Institutes of Health, 2021)
